Experiments:
[1] = test system: Respiratory syncytial virus (RSV) type A, strain A2 (ATCC VR-1540); experiment: dNHBE assay: RSV virus yield reduction (EC90); type: cell-based; conditions: human respiratory syncytial virus, RSV (A2) in dNHBE cells; concentration reducing virus yield by 1 log10; mean of at least two experiments
Protocol: (§1) Differentiated normal human bronchial epithelial (dNHBE) cells were grown on 6 mm mesh disks in transwell inserts to approximately 1.2×10^6 cells/disk and disks were transferred to individual wells of a 6-well plate. 1 mL of proprietary culture medium was added to the basolateral side of the cells and the apical side was exposed to a humidified 95% air/5% CO2 environment. Cells were cultured at 37° C. for one day and then the mucin layer was removed from the apical side of the cells by repeated (3×) washing with 500 μL 30 mM HEPES buffered saline solution and culture medium on the basal side was replenished.
Respiratory syncytial virus (RSV) type A, strain A2 (ATCC VR-1540), previously passaged in MA-104 cells to make working stock cultures, was diluted 1/10 in medium before infection, using a multiplicity of infection (MOI) of ≤0.03 CCID50 per cell.
(§2) Various concentrations of test compounds in medium were applied in duplicate to the apical (140 μL) and basal sides (1 mL) for a 1 hour pre-treatment, followed by addition of 140 μL of virus inoculum to each cell insert on the apical side. The viral inoculum and treatments were removed after 2 hours. Control cells were treated with placebo (culture medium only). Following infection, the apical medium was removed and the basal side was replaced with fresh compound in medium. The cells were maintained at the air-liquid interface, and cell culture medium on the basal side was replaced daily with fresh medium containing test compound. After 4 days, the liquid was removed from the basal side and discarded and virus released into the apical compartment was harvested by the addition of 500 μL of culture medium. The medium was thoroughly mixed, then removed, diluted 1:1 with 40% sucrose and stored at ≤−80° C.
To determine the virus titer from each treated cell culture, MA-104 cells were seeded in 96-well plates and grown overnight (37° C.) to confluence. Samples containing virus were diluted in 10-fold increments in infection medium and 200 μL of each dilution transferred into respective wells of a 96-well microtiter plate. Four microwells were used for each dilution to determine 50% viral endpoints. After 7 days of incubation, each well was scored positive for virus if any cytopathic effect was observed as compared with the uninfected control. The virus dose that was able to infect 50% of the cell cultures (CCID50 per 0.1 mL) was calculated by the Reed-Muench method. This was repeated in duplicate for each test sample, so that values reported are an average of 2 independent CCID5o determinations. Untreated, uninfected cell controls were tested as negative controls. Statistical differences in the titers were evaluated with a one-way analysis of variance (ANOVA) followed by Dunnett's multiple comparisons test compared with the untreated virus controls.
(§3) Concentrations of test compounds that reduced virus yield by 1 log10 (90% effective concentration; EC90) were calculated by regression analysis. The reported EC90 value is the mean of at least two experiments. Potential toxicity of the test compounds was evaluated microscopically.

[2] = test system: Differentiated normal human bronchial epithelial (dNHBE) cells; experiment: dNHBE assay: toxicity evaluated microscopically; type: cell-based; design: unit not given here
Protocol: as §1, §2, §3

SMILES	EC90 [1] [nM]	Visual toxicity [2]
CNc1nc(N)nc2c1ncn2[C@@H]1O[C@](C)(CO[P@@](=O)(N[C@@H](C)C(=O)OC(C)C)Oc2ccccc2)[C@@H](O)[C@H]1F [Compound AC]	74	>1.4
CNc1nc(F)nc2c1ncn2[C@@H]1O[C@](CCl)(CO[P@@](=O)(N[C@@H](C)C(=O)OC(C)C)Oc2ccccc2)[C@@H](O)[C@H]1F [AJ, (S)-Isopropyl 2-(((S)-(((2R,3R,4R,5R)-5-(6-(methylamino)-2-fluoro-9H-purin-9-yl)-2-(chloromethyl)-4-fluoro-3-hydroxytetrahydrofuran-2-yl)methoxy)(phenoxy)phosphoryl)amino) propanoate]	> 1600	>1.6
CNc1nc(F)nc2c1ncn2[C@@H]1O[C@](C)(CO[P@@](=O)(N[C@@H](C)C(=O)OC(C)C)Oc2ccccc2)[C@@H](O)[C@@H]1F [AP, (S)-Isopropyl 2-(((S)-(((2R,3R,4S,5R)-5-(6-(methylamino)-2-fluoro-9H-purin-9-yl)-4-fluoro-3-hydroxy-2-methyltetrahydrofuran-2-yl)methoxy)(phenoxy)phosphoryl)amino) propanoate]	34	>1.7
CNc1nc(N)nc2c1ncn2[C@@H]1O[C@](CCl)(COP(=O)(N[C@@H](C)C(=O)OC(C)C)Oc2ccccc2)[C@@H](O)[C@H]1F (stereo partly drawn) [Compound N, (2S)-Isopropyl 2-(((((2R,3R,4R,5R)-5-(2-amino-6-(methylamino)-9H-purin-9-yl)-2-(chloromethyl)-4-fluoro-3-hydroxytetrahydrofuran-2-yl)methoxy)(phenoxy)-phosphoryl)amino)propanoate]	830	>162
CC(C)OC(=O)[C@H](C)N[P@](=O)(OC[C@@]1(C)O[C@@H](n2cnc3c(NC4CC4)nc(N)nc32)[C@H](F)[C@@H]1O)Oc1ccccc1 [AV, (S)-Isopropyl 2-(((S)-(((2R,3R,4R,5R)-5-(2-amino-6-(cyclopropylamino)-9H-purin-9-yl)-4-fluoro-3-hydroxy-2-methyltetrahydrofuran-2-yl)methoxy)(phenoxy)phosphoryl)amino) propanoate]	99	>1.6
CNc1nc(N)nc2c1ncn2[C@@H]1O[C@](CF)(CO[P@@](=O)(N[C@@H](C)C(=O)OC(C)C)Oc2ccccc2)[C@@H](O)[C@@H]1F [AT, (S)-Isopropyl 2-(((S)-(((2R,3R,4S,5R)-5-(2-amino-6-(methylamino)-9H-purin-9-yl)-4-fluoro-2-(fluoromethyl)-3-hydroxytetrahydrofuran-2-yl)methoxy)(phenoxy)phosphoryl)amino) propanoate]	180	>1.6
CC(C)OC(=O)[C@H](C)N[P@](=O)(OC[C@@]1(C)O[C@@H](n2cnc3c(N(C)C)nc(N)nc32)[C@H](F)[C@@H]1O)Oc1ccccc1 [AA]	3500	>167
CC(C)OC(=O)[C@H](C)N[P@](=O)(OC[C@@]1(C)O[C@@H](n2cnc3c(N(C)C)nc(F)nc32)[C@H](F)[C@@H]1O)Oc1ccccc1 [Compound AD, (S)-Isopropyl 2-(((S)-(((2R,3R,4R,5R)-5-(6-(dimethylamino)-2-fluoro-9H-purin-9-yl)-4-fluoro-3-hydroxy-2-methyltetrahydrofuran-2-yl)methoxy)(phenoxy)phosphoryl)amino) propanoate]	8400	>16
CC(C)OC(=O)[C@H](C)N[P@](=O)(OC[C@@]1(CCl)O[C@@H](n2cnc3c(N(C)C)nc(N)nc32)[C@H](F)[C@@H]1O)Oc1ccccc1 [AG, (S)-Isopropyl 2-(((S)-(((2R,3R,4R,5R)-5-(2-amino-6-(dimethylamino)-9H-purin-9-yl)-2-(chloromethyl)-4-fluoro-3-hydroxytetrahydrofuran-2-yl)methoxy)(phenoxy)phosphoryl)amino) propanoate]	< 160	>15
CC[C@]1(COP(=O)(N[C@@H](C)C(=O)OC(C)C)Oc2ccccc2)O[C@@H](n2cnc3c(NC)nc(N)nc32)[C@H](F)[C@@H]1O (stereo partly drawn) [Compound R, (2S)-Isopropyl 2-(((((2R,3R,4R,5R)-5-(2-amino-6-(methylamino)-9H-purin-9-yl)-2-ethyl-4-fluoro-3-hydroxytetrahydrofuran-2-yl)methoxy)(phenoxy)-phosphoryl)amino) propanoate]	2300	>167
CNc1nc(Cl)nc2c1ncn2[C@@H]1O[C@](C)(CO[P@@](=O)(N[C@@H](C)C(=O)OC(C)C)Oc2ccccc2)[C@@H](O)[C@H]1F [AR, (S)-Isopropyl 2-(((S)-(((2R,3R,4R,5R)-5-(6-(methylamino)-2-chloro-9H-purin-9-yl)-4-fluoro-3-hydroxy-2-methyltetrahydrofuran-2-yl)methoxy)(phenoxy)phosphoryl)amino) propanoate]	1000	>1.6
CC(C)OC(=O)[C@H](C)N[P@](=O)(OC[C@@]1(C)O[C@@H](n2cnc3c(N(C)C)nc(Cl)nc32)[C@H](F)[C@@H]1O)Oc1ccccc1 [Compound AE, (S)-Isopropyl 2-(((S)-(((2R,3R,4R,5R)-5-(6-(dimethylamino)-2-chloro-9H-purin-9-yl)-4-fluoro-3-hydroxy-2-methyltetrahydrofuran-2-yl)methoxy)(phenoxy)phosphoryl)amino) propanoate]	9300	>16
CNc1nc(N)nc2c1ncn2[C@@H]1O[C@](C)(CO[P@@](=O)(N[C@@H](C)C(=O)OC(C)C)Oc2ccccc2)[C@@H](O)[C@@H]1F [AK, (S)-Isopropyl 2-(((S)-(((2R,3R,4S,5R)-5-(2-amino-6-(methylamino)-9H-purin-9-yl)-4-fluoro-3-hydroxy-2-methyltetrahydrofuran-2-yl)methoxy)(phenoxy)phosphoryl)amino) propanoate]	1100	>1.7
CC[C@]1(CO)O[C@@H](n2cnc3c(NC)nc(N)nc32)[C@H](F)[C@@H]1O [Compound Q, (2R,3R,4R,5R)-5-(2-Amino-6-(methylamino)-9H-purin-9-yl)-2-ethyl-4-fluoro-2-(hydroxymethyl)tetrahydrofuran-3-ol]	7300	>306
CNc1nc(OC)nc2c1ncn2[C@@H]1O[C@](CCl)(CO[P@@](=O)(N[C@@H](C)C(=O)OC(C)C)Oc2ccccc2)[C@@H](O)[C@H]1F [AN, (S)-Isopropyl 2-(((S)-(((2R,3R,4R,5R)-5-(6-(methylamino)-2-methoxy-9H-purin-9-yl)-2-(chloromethyl)-4-fluoro-3-hydroxytetrahydrofuran-2-yl)methoxy)(phenoxy)phosphoryl)amino) propanoate]	> 1600	>1.6
CC(C)OC(=O)[C@H](C)N[P@](=O)(OC[C@@]1(C)O[C@@H](n2cnc3c(N(C)C4CC4)nc(N)nc32)[C@H](F)[C@@H]1O)Oc1ccccc1 [AS, (S)-Isopropyl 2-(((S)-(((2R,3R,4R,5R)-5-(2-amino-6-(cyclopropyl(methyl)amino)-9H-purin-9-yl)-4-fluoro-3-hydroxy-2-methyltetrahydrofuran-2-yl)methoxy)(phenoxy)phosphoryl)amino) propanoate]	1500	>1.6
CNc1nc(NC)c2ncn([C@@H]3O[C@](C)(CO[P@@](=O)(N[C@@H](C)C(=O)OC(C)C)Oc4ccccc4)[C@@H](O)[C@H]3F)c2n1 [AU, (S)-Isopropyl 2-(((S)-(((2R,3R,4R,5R)-5-(2,6-bis(methylamino)-9H-purin-9-yl)-4-fluoro-3-hydroxy-2-methyltetrahydrofuran-2-yl)methoxy)(phenoxy)phosphoryl)amino) propanoate]	> 1700	>1.7
CNc1nc(N)nc2c1ncn2[C@@H]1O[C@@](CO)(CCl)[C@@H](O)[C@H]1F [Compound M, (2R,3R,4R,5R)-5-(2-Amino-6-(methylamino)-9H-purin-9-yl)-2-(chloromethyl)-4-fluoro-2-(hydroxymethyl)tetrahydrofuran-3-ol]	2900	>288

Reference: patent US10202412B2, “β-D-2′-deoxy-2′-substituted-4′-substituted-2-substituted-N6-substituted-6-aminopurinenucleotides for the treatment of paramyxovirus and orthomyxovirus infections” (Atea Pharmaceuticals, Inc., priority 2016, dated 2019)
